Test results published in ChEMBL document CHEMBL1133814, “Synthesis and progesterone receptor antagonist activities of 6-aryl benzimidazolones and benzothiazolones” (Bioorg Med Chem Lett, 2001).

Experiments:
Progesterone receptor [1] = target: T1, Progesterone receptor (Homo sapiens, UniProt P06401); experiment: Inhibitory concentration against progesterone stimulated alkaline phosphatase activity in T47D human breast carcinoma cell line; type: cell-based
T1 sequence (P06401 whole entry): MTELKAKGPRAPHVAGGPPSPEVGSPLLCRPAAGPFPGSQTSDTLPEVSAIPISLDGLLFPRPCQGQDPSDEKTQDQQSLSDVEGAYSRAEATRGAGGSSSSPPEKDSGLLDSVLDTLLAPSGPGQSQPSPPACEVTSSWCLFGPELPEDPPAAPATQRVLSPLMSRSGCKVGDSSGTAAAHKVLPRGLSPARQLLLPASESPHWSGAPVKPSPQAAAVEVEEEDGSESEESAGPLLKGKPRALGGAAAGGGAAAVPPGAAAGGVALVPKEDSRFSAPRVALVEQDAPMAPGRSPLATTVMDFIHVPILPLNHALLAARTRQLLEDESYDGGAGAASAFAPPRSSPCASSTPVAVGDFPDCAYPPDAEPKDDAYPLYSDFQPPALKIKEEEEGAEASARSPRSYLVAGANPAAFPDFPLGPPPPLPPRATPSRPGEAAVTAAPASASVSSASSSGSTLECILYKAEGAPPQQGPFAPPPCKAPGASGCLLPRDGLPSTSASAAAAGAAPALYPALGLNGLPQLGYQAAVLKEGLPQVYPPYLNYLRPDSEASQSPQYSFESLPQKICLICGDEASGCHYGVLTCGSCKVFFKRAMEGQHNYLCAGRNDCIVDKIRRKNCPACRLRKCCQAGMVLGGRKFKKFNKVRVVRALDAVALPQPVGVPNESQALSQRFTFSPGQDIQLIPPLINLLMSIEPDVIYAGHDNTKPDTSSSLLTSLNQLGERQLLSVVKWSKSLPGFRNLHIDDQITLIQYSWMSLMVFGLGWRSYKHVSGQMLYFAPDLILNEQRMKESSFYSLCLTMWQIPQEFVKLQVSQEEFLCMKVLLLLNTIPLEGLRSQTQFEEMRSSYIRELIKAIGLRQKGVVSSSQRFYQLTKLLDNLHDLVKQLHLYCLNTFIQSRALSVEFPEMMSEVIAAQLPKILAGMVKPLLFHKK

Progesterone receptor [2] = target: T1, Progesterone receptor; experiment: Inhibitory concentration against progesterone induced PRE-luciferase activity in CV-cells; set-up: species or system Oryctolagus cuniculus
Progesterone receptor [3] = target: T1, Progesterone receptor; experiment: Binding affinity towards progesterone receptor was measured

IC50 (Progesterone receptor [1]) [nM]	IC50 (Progesterone receptor [2]) [nM]	Ki (Progesterone receptor [3]) [nM]	SMILES
> 10000	–	–	S=c1[nH]c2cc(-c3cccc(Cl)c3)ccc2n1Cc1ccccc1
> 10000	> 10000	> 10000	O=[N+]([O-])c1cccc(-c2ccc3c(c2)nc(O)n3Cc2ccccc2)c1
83.8	326	332	O=c1[nH]c2ccc(-c3cccc([N+](=O)[O-])c3)cc2s1
17	–	150	S=c1[nH]c2ccc(-c3cccc(Cl)c3)cc2n1Cc1ccccc1
62	257	714	O=c1[nH]c2ccc(-c3cccc([N+](=O)[O-])c3)cc2n1Cc1ccccc1
73.1	136	525	CC(C)n1c(=O)[nH]c2ccc(-c3cccc([N+](=O)[O-])c3)cc21
29.2	106	~1000	CCn1c(=O)[nH]c2ccc(-c3cccc(Cl)c3)cc21
113	412	525	CC(C)n1c(=O)[nH]c2ccc(-c3cccc(Cl)c3)cc21
1000	–	–	Cn1c(=O)[nH]c2ccc(-c3cccc(Cl)c3)cc21
113	–	521	O=c1[nH]c2ccc(-c3cccc(Cl)c3)cc2n1Cc1ccccc1
1000	–	> 10000	Cn1c(=O)[nH]c2ccc(-c3cccc([N+](=O)[O-])c3)cc21
10	–	30	O=[N+]([O-])c1cccc(-c2ccc3[nH]c(=S)n(Cc4ccccc4)c3c2)c1
460	265	127	O=c1[nH]c2ccc(-c3cccc(Cl)c3)cc2s1
> 10000	3060	3130	Oc1nc2cc(-c3cccc(Cl)c3)ccc2n1Cc1ccccc1
